Assay: Release of quercetin in PBS solution from electrospun PLLA scaffold (spectrophotometer)
Assay type: physicochemical
Conditions: all three samples (quercetin:PLLA 1:16, 1:8, 1:4)
Experimental: Materials and Methods: For fabrication of the scaffolds, an electrospinning apparatus consisting of a high voltage power supply (PCM series, Spellman, NY, USA) was used for charging the polymer solution, a grounded aluminum roto-translating drum (4 mm outer diameter and 13 cm in length) was used for collecting fibers, and a syringe pump (KDS-100, KD Scientific, Holliston, MA, USA) was used for controlling feed flow rate. Rotation was at 750 rpm and translation velocity at 1000 mm/min. The fluid was pushed out from the syringe with a flow rate of 1.1 mL/h, throughout a 0.25 mm diameter needle with a potential difference of 17 kV. All the samples were obtained using about 1.5 mL of initial solution. The polymer solution was prepared with Poly (L-lactide), PLLA, in 1,1,1,3,3,3-Hexafluoro-2-propanol (HFP) 20% (w/v). Three different volumes of quercetin dihydrate in ethanol (5.5 mg/mL) were added to obtain three different quercetin/polymer ratio: 1:4, 1:8, 1:16. […] The mechanical properties of the scaffolds were measured using uniaxial tensile test. The release of quercetin in PBS solution from the scaffold was measured using spectrophotometer at different times up to 75 days. Growth inhibition activity of quercetin against Escherichia coli and Saccharomyces cerevisiae was also assessed.

## O=c1c(O)c(-c2ccc(O)c(O)c2)oc2cc(O)cc(O)c12 [quercetin]
After 75 days of incubation at 4° C.
  amount of quercetin released: 50%
After 75 days of incubation at 20° C.
  amount of quercetin released: 50%
